Measurements: patent US12048691B2 (SPERO THERAPEUTICS, INC., priority 2020, dated 2024)
In brackets after ≈: the same amount, converted by molar mass. Like-named read-outs stand apart in the source and are kept apart here.

What was measured:
E. coli [1] = experiment: Susceptibility of E. coli from urinary tract infections, 18 EU countries 2020 (STEWARD); assay type: cell-based
Procedure: The study assessed the prevalence of resistance and evaluated the activity of oral tebipenem (TBP) and comparators against EC from urinary tract infections.
Results were interpreted using EUCAST criteria. […] ESBL phenotypes were determined by CLSI criteria and sequenced to identify CTX-M-15 genotype and clonal complex ST131.

[2] = system: bacteremia secondary to cUTI/AP; experiment: Efficacy in patients with cUTI or acute pyelonephritis and associated bacteremia; assay type: in vivo, human
From the text: The objective of this analysis was to evaluate the efficacy of TBP-PI-HBr in the subset of patients with associated bacteremia from a study of patients with either cUTI or acute pyelonephritis.

E. coli [3] = experiment: Broth microdilution MIC against characterized subsets of UTI E. coli (2018-2020); assay type: cell-based; conditions: for MIC50 / MIC90: Escherichia coli; for MIC50: read-out: MIC50; for MIC90: read-out: MIC90
From the text: Isolates were collected from medical centers in all 9 US Census Regions and tested by broth microdilution. MIC interpretation was based on CLSI. Isolates that met MIC criteria were subjected to genome sequencing, followed by screening of extended-spectrum b-lactamase (ESBL) genes and epidemiology typing (MLST).

[4] = system: AmpC production in Enterobacterales; experiment: AmpC induction (nitrocefin hydrolysis after drug exposure); assay type: cell-based; conditions: tebipenem/imipenem except for C. koseri and S. marcescens
Procedure: (§1) AmpC induction was determined as follows. Baseline MIC values were determined by broth microdilution method, as described above, for 9 Gram-negative isolates with basal expression of ampC. These isolates were cultured overnight on blood agar plates. A standardized inoculum made from fresh overnight plate cultures was added to flasks containing 50 mL of Luria-Bertani (LB) broth and incubated by shaking at 37° C. to OD600 of 0.3. […] These cultures were incubated under shaking conditions. A 40 mL aliquot of bacterial cultures was sampled at time 0 and 2 hours after drug exposures. Each sample aliquot was harvested by centrifugation and the supernatant was discarded.
(§2) Protein crude extract preparations were made in 200 μL of BugBusterR (Novagen, Darmstadt, Germany) per manufacturer instructions and cell debris was removed by centrifugation. Protein concentrations were determined in each crude extract by standard methodologies.
(§3) AmpC induction was measured by the intensity of β-lactamase hydrolytic activity against 0.1 mM nitrocefin in 0.1 M phosphate buffer at pH 7.0 using spectrophotometry at 482 nm (Δ absorbance/minute/mg of protein). The drug exposure conditions that caused a >4-fold increase in hydrolysis activity compared to the baseline were subjected to postinduction experiments. Briefly, cells were grown under the same conditions as before and tested for susceptibility by broth microdilution.

[5] = system: AmpC production in P. aeruginosa; experiment: as above; assay type: cell-based
Procedure: as §1, §2, §3

[6] = system: Methicillin-susceptible Staphylococcus aureus (MSSA); experiment: Broth microdilution against Gram-positive clinical isolates; assay type: cell-based; conditions: Staphylococcus aureus, 489 isolates
Procedure: (§4) The purpose of this study was to investigate the in vitro activity of tebipenem and comparator agents, including ertapenem and meropenem, against a recent collection of Gram-positive isolates associated with clinical infections. The susceptibility of 580 Gram-positive organisms were tested, including: Methicillin-susceptible Staphylococcus aureus (MSSA, 489 isolates), Methicillin-susceptible Staphylococcus epidermidis (MSSE, 31), other methicillin-susceptible coagulase-negative staphylococci (MSCONS, 29), and Vancomycin-susceptible Enterococcus faecalis (31). Bacterial species were identified by JMI Laboratories using standard microbiology methods and matrix-assisted laser desorption ionization-time of flight mass spectrometry (Bruker Daltonics, Bremen, Germany). The isolates were collected in 2018 and 2019 as part of the SENTRY surveillance program and selected to be representative of these species with 45.0% from the United States, 44.3% from Europe, 5.3% from the Asia-Pacific region, and 5.3% from Latin America. Isolates are primarily from pneumonia in hospitalized patients (498 isolates; 85.9%), urinary tract infections (42 isolates; 7.2%), and bloodstream infections (38 isolates; 6.6%). Isolates were tested in a central laboratory (JMI Laboratories) for antimicrobial susceptibility using the CLSI M07 (2018) reference broth microdilution method. JMI Laboratories produced frozen-form 96-well panels and used cation-adjusted Mueller-Hinton broth (CA-MHB) as the testing medium. All categorical interpretations used CLSI M100 (2021) and EUCAST v10.0 (2021) breakpoint criteria, where published. Quality control organisms include Escherichia coli ATCC 25922, Escherichia coli ATCC 35218, Enterococcus faecalis ATCC 29212, Pseudomonas aeruginosa ATCC 27853, and Staphylococcus aureus ATCC 29213 were tested concurrently with clinical isolates.

[7] = system: Methicillin-susceptible Staphylococcus epidermidis (MSSE); experiment: as above; assay type: cell-based; conditions: Staphylococcus epidermidis, 31 isolates
Procedure: as §4

[8] = system: Vancomycin-susceptible Enterococcus faecalis; experiment: as above; assay type: cell-based; conditions: Enterococcus faecalis; E. faecalis, 31 isolates
Procedure: as §4

[9] = system: other methicillin-susceptible coagulase-negative staphylococci (MSCONS); experiment: as above; assay type: cell-based; conditions: 29 isolates
Procedure: The purpose of this study was to investigate the in vitro activity of tebipenem and comparator agents, including ertapenem and meropenem, against a recent collection of Gram-positive isolates associated with clinical infections. The susceptibility of 580 Gram-positive organisms were tested, including: […] Bacterial species were identified by JMI Laboratories using standard microbiology methods and matrix-assisted laser desorption ionization-time of flight mass spectrometry (Bruker Daltonics, Bremen, Germany). […] Isolates were tested in a central laboratory (JMI Laboratories) for antimicrobial susceptibility using the CLSI […] (2018) reference broth microdilution method. JMI Laboratories produced frozen-form 96-well panels and used cation-adjusted Mueller-Hinton broth (CA-MHB) as the testing medium. […] Quality control organisms include Escherichia coli ATCC 25922, Escherichia coli ATCC 35218, Enterococcus faecalis ATCC 29212, Pseudomonas aeruginosa ATCC 27853, and Staphylococcus aureus ATCC 29213 were tested concurrently with clinical isolates.

SMILES: C[C@@H](O)[C@H]1C(=O)N2C(C(=O)O)=C(S[C@@H]3CN[C@H](C(=O)Nc4cccc(C(=O)O)c4)C3)[C@H](C)[C@H]12 [Ertapenem, ertapenem]
- MIC90 (E. coli [1]; Escherichia coli, all E. coli (764) from UTIs): 0.03 µg/mL (≈ 0.0631 µM)
- Susceptibility rate (E. coli [1]; all E. coli, EUCAST criteria): 99.9%
- Clinical cure rate ([2]; EOT): 100%
- Clinical cure rate ([2]; TOC): 94.3%
- Overall response rate ([2]; end-of-treatment (EOT)): 96.2%
- Clinical cure rate ([2]; late-follow-up (LFU) visit): approximately 89%
- Overall response rate ([2]; test-of-cure (TOC)): 66.0%
- % susceptible by CLSI M100 criteria (E. coli [3]; CMYb (33)): 90.6%
- % susceptible by CLSI M100 criteria (E. coli [3]; CTX-M a): 98.9%
- % susceptible by CLSI M100 criteria (E. coli [3]; DHA(7)): 85.7%
- % susceptible by CLSI M100 criteria (E. coli [3]; ESBL (360)): 97.4%
- MIC50 (E. coli [3]; CMYb (33)): 0.06 µg/mL (≈ 0.126 µM)
- MIC50 (E. coli [3]; CTX-M a): 0.03 µg/mL (≈ 0.0631 µM)
- MIC90 (E. coli [3]; CTX-M a): 0.12 µg/mL (≈ 0.252 µM)
- MIC50 (E. coli [3]; DHA(7)): 0.06 µg/mL (≈ 0.126 µM)
- MIC50 (E. coli [3]; ESBL (360)): 0.03 µg/mL (≈ 0.0631 µM)
- MIC90 (E. coli [3]; ESBL (360)): 0.12 µg/mL (≈ 0.252 µM)
- MIC50 (E. coli [3]; Non-ESBL (2035)): ≤ 0.008 µg/mL
- MIC90 (E. coli [3]; Non-ESBL (2035)): 0.015 µg/mL (≈ 0.0315 µM)
- MIC50 (E. coli [3]; Non-ST131 (203)): 0.015 µg/mL (≈ 0.0315 µM)
- MIC90 (E. coli [3]; ST131 (222)): 0.06 µg/mL (≈ 0.126 µM)
- % susceptible by CLSI M100 criteria (E. coli [3]; Non-ESBL (2035)): 100%
- % susceptible by CLSI M100 criteria (E. coli [3]; Non-ST131 (203)): 97.0%
- % susceptible by CLSI M100 criteria (E. coli [3]; ST131 (222)): 99.1%
- % susceptible (E. coli [3]; against the various subsets): ≥ 97.0%
- susceptibility rates (E. coli [3]; isolates carrying plasmid AmpC): 85.7-90.6%
- effect of exposure on production of AmpC [4]: did not seem to affect production of AmpC
- effect of exposure on production of AmpC [5]: not observed
- MIC90 [6]: 0.25 µg/mL (≈ 0.526 µM)
- MIC90 [7]: 0.5 µg/mL (≈ 1.05 µM)
- MIC90 [8]: > 8 µg/mL
- MIC90 [9]: 1 µg/mL (≈ 2.1 µM)
